Results on twelve compounds are retold here after patent US20120283295A1, “INDAZOLE DERIVATIVES AND THEIR USE FOR BLOCKADING VOLTAGE DEPENDENT SODIUM CHANNELS” (University College London, priority 2009, published 2012).

Where two headings read alike, the source gives them in different places.

For series [1], the system named is voltage dependent sodium channels. Put plainly: Sodium channel activity, guanidine flux. In kind it is cell-based.
Experimental: (§2) Biological assays to determine sodium channel activity, neuroprotection and Nav isoform selectivity were carried out according to the protocols set out in Clutterbuck et al (2009), J. Med. Chem. 52, 2694-2707.
The target in the next series is Nav1.1 (Homo sapiens, UniProt P35498). In words: Nav isoform selectivity, Nav1.1. In kind it is cell-based.
A further series concerns the target Nav1.2 (Homo sapiens, UniProt Q99250). In words: Nav isoform selectivity, Nav1.2 (EP). Type of series: cell-based. Set-up: concentration or dose not given beside the values.
The target in the next series is Nav1.3 (Homo sapiens, UniProt Q9NY46). In words: Nav isoform selectivity, Nav1.3. In kind it is cell-based. Set-up: concentration or dose not given beside the values.
A further series deals with Nav1.4 (Homo sapiens, UniProt P35499). In words: Nav isoform selectivity, Nav1.4. Type of series: cell-based. Set-up: concentration or dose not given beside the values.
Another series concerns the target Nav1.6 (Homo sapiens, UniProt Q9UQD0). In words: Nav isoform selectivity, Nav1.6. In kind it is cell-based. Set-up: concentration or dose not given beside the values.
The target of the next series is Nav1.7 (Homo sapiens, UniProt Q15858). In words: Nav isoform selectivity, Nav1.7. Set-up: concentration or dose not given beside the values. Type of series: cell-based.
For a further series, the target named is Nav1.8 (Homo sapiens, UniProt Q9Y5Y9). Put plainly: Nav isoform selectivity, Nav1.8. In kind it is cell-based. Set-up: concentration or dose not given beside the values.
Series [2] concerns the target T1, Nav1.5 (Homo sapiens, UniProt Q14524). In words: Nav isoform selectivity, Nav1.5.
Series [3] has as its system lymph node proliferative responses. In words: Immunosuppressive activity, contact-hypersensitivity paradigm. The conditions noted are these: daily i.p. 5, 25 and 50 mg/kg from a day before sensitization; compared to vehicle. Type of series: in vivo. The protocol:
(§1) The immunosuppressive activity of Example 15 was investigated using a simple contact-hypersensitivity paradigm. […] (Data not shown). Therefore, it was not necessary to dose-titrate Example 15 in order to avoid the immunosuppression-induced neuroprotection that would mask any real neuroprotective action of Example 15. In order to limit animal usage required for a full-dose-response, as proof-of-principle, 10 mg/kg of Example 15 i.p. was selected as an initial dose for study. This dose was within the range used in humans for sodium channel-blocking agents (1-50 mg/kg p.o.), particularly when scaled to mouse (USDHHS, 2005), and was well below the maximum tolerated dose (>50 mg/kg/daily). This was investigated for a neuroprotective potential in an induced-relapse during experimental autoimmune encephalomyelitis (EAE).
T cell proliferation per 5×10^5 lymph node cells or proliferation adjusted for the number of cells in the lymph nodes is shown in FIGS. 2 and 3.

The conditions of series [4]: in vivo. The protocol: as §1
The test system of series [5] is induced-relapse EAE in ABH mice. In words: Induced-relapse experimental autoimmune encephalomyelitis (EAE). Type of series: in vivo. From the text: In many rodent models of MS, particularly during EAE the ABH mice, there is limited demyelination and nerve damage during the initial acute-phase of paralysis that occurs 2-3 weeks following sensitization (Baker et al. 1990, Jackson et al. 2005). Nerve damage and demyelination becomes more pronounced with disease duration and the development of relapsing disease (Baker et al. 1990). The neuroprotective potential of Example 15 was therefore examined in an induced-relapse EAE paradigm.
ABH mice were injected with 1 mg mouse spinal cord homogenate in Freunds adjuvant on days 0 and 7 p.i. to induce EAE and this was repeated on 27 p.i. to induce a relapse. Animals were injected daily i.p. with either vehicle or 10 mg/kg Example 15 from day 33 onwards. Animals were monitored for the development of clinical disease and the results represent: (A) The mean maximal clinical score, during the initial acute attack around day 15-20 and the clinical relapse around day 34-40, or the mean minimal clinical score during remission from paralytic attacks. (B) The mean daily clinical score following induction of relapse. (C) The time taken to fall from an accelerating rotorod was monitored pre-treatment on day 25 or on day 48 post-disease induction, when the experiment was terminated. (D) The spinal cords were removed and nerve content was measured using a neurofilament heavy chain (Nfh)-specific ELISA. The results represent the mean±SEM of 8 animals per group. *P<0.05, **P<0.01, ***P<0.001 compared to vehicle-treated animals.

The target in series [6] is T1, Nav1.5.
Where [7] appears, read: 10 mg/kg daily i.p. from day 33, vs vehicle.

Sequence of Nav1.7 (Q15858 whole entry, canonical isoform): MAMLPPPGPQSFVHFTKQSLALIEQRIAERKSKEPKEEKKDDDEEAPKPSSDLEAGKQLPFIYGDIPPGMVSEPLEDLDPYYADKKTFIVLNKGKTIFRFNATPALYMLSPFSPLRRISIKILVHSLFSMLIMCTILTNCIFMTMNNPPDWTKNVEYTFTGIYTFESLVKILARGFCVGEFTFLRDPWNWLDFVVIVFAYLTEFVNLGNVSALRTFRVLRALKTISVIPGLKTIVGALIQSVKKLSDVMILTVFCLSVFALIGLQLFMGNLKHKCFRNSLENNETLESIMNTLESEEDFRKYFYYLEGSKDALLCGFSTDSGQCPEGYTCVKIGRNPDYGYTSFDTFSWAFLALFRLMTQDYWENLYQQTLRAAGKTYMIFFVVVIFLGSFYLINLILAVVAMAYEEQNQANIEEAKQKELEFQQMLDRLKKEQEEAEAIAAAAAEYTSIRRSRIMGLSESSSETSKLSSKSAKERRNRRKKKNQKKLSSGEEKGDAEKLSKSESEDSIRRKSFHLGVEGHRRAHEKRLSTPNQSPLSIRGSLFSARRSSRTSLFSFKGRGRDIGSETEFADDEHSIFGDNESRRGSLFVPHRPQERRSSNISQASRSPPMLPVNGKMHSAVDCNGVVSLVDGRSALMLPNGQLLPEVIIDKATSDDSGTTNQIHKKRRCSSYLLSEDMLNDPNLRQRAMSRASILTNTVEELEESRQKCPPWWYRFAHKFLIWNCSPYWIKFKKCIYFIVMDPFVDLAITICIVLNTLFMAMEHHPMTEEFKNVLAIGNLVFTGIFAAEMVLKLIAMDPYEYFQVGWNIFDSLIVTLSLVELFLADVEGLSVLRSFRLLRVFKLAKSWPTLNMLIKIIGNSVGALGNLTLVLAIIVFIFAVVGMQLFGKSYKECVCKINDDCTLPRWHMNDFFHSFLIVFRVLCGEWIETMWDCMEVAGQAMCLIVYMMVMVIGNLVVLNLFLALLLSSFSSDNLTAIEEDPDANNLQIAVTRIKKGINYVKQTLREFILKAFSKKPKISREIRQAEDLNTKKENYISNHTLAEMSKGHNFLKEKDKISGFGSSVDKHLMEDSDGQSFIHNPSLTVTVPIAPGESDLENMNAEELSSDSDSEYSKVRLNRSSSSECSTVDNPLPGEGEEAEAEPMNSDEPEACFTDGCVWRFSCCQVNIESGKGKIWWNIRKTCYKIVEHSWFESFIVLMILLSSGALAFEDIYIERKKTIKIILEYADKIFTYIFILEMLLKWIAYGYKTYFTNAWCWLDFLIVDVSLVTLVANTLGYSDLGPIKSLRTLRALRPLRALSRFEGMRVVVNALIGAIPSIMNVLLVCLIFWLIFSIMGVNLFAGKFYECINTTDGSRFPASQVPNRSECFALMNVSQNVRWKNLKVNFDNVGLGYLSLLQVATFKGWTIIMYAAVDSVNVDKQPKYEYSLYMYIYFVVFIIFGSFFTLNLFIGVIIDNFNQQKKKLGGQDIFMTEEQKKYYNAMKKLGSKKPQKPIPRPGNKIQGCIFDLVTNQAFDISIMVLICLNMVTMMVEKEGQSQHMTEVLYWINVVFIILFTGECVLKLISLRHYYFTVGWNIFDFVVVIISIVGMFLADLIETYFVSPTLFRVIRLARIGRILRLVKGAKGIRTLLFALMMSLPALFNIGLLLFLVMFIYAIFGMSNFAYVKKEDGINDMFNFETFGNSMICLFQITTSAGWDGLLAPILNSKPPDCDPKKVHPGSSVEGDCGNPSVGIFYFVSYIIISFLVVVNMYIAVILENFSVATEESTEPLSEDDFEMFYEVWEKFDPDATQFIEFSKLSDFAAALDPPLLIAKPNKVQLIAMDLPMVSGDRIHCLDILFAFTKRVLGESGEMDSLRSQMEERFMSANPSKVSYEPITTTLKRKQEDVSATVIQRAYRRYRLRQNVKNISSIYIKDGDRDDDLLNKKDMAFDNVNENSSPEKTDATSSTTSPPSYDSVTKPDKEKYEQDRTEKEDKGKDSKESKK
Sequence of Nav1.8 (Q9Y5Y9 whole entry, canonical isoform): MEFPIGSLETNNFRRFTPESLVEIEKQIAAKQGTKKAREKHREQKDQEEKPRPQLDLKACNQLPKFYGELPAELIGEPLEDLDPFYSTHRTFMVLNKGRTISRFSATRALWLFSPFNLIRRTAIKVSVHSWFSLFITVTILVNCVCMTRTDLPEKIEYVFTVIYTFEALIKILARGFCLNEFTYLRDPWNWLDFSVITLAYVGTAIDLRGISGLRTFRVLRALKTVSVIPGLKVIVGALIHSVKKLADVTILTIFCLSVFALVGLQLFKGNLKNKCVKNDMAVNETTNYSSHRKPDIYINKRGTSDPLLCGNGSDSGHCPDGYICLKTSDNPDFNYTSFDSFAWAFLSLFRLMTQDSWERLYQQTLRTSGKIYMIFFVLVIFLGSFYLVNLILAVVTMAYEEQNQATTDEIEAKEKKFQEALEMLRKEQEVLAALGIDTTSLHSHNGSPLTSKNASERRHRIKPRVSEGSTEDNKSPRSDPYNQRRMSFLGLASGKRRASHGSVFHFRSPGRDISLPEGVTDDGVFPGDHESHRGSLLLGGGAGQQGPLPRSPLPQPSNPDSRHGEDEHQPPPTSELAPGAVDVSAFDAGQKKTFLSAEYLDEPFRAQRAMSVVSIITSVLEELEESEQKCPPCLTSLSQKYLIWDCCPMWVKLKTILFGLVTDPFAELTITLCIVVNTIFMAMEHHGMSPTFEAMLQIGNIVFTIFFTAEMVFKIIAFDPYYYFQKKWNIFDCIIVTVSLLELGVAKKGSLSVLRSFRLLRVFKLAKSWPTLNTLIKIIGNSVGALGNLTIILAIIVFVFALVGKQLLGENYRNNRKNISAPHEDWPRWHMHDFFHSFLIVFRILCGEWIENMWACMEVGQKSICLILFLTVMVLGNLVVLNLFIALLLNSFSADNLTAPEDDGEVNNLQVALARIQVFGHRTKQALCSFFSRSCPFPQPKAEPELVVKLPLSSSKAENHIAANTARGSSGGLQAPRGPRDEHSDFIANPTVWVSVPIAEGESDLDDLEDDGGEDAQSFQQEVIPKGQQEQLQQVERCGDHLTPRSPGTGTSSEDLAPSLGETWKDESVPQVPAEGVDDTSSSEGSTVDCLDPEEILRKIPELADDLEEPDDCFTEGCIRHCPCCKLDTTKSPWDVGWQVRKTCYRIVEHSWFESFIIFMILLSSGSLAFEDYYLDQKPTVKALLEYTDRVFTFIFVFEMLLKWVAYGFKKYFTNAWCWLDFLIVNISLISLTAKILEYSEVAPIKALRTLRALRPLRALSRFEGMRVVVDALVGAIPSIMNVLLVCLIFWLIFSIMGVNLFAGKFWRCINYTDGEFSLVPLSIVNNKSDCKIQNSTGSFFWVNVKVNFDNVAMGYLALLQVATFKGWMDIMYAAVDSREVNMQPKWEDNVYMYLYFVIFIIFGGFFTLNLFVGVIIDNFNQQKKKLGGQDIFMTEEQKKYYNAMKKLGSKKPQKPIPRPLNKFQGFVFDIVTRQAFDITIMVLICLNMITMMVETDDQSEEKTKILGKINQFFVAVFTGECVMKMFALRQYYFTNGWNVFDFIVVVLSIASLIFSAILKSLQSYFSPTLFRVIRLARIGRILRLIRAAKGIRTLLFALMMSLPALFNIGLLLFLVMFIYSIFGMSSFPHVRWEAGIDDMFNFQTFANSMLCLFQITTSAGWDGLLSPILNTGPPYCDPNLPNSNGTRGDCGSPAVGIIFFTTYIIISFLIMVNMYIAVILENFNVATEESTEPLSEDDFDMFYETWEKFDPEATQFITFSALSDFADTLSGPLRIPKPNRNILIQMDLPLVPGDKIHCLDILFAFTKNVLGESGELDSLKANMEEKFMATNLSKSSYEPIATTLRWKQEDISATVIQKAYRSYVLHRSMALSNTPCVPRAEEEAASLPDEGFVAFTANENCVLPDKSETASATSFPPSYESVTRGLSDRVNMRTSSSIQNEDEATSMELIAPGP
Experimental for Nav1.1: as §2
Experimental for Nav1.2: as §2
Experimental for Nav1.3: as §2
Experimental for Nav1.8: as §2

By IC50 is commonly meant the concentration needed to halve the response being measured. `CC(C)(C)OC(=O)NCc1noc(-c2nn(CCn3ccnc3)c3ccccc23)n1` [Example 1, tert-butyl (5-(1-(2-(1H-imidazol-1-yl)ethyl)-1H-indazol-3-yl)-1,2,4-oxadiazol-3-yl)methylcarbamate] showed an IC50 in [1] of 102 µM.
The compound `CC(C)(C)OC(=O)NCc1noc(-c2c3ccccc3nn2CCn2ccnc2)n1` [Example 2, tert-butyl (5-(2-(2-(1H-imidazol-1-yl)ethyl)-2H-indazol-3-yl)-1,2,4-oxadiazol-3-yl)methylcarbamate] had an IC50 in [1] of 11 µM.
In [1], `O=C(NCc1noc(-c2c3ccccc3nn2CCn2ccnc2)n1)c1ccccc1` [Example 5, N-((5-(2-(2-(1H-imidazol-1-yl)ethyl)-2H-indazol-3-yl)-1,2,4-oxadiazol-3-yl)methyl)benzamide] returned an IC50 of 324 µM.
Take `COc1cccc(C(=O)NCc2noc(-c3c4ccccc4nn3CCn3ccnc3)n2)c1OC` [Example 6, N-((5-(2-(2-(1H-imidazol-1-yl)ethyl)-2H-indazol-3-yl)-1,2,4-oxadiazol-3-yl)methyl)-2,3-dimethoxybenzamide]: the 50% inhibitory concentration (IC50) in series [1] amounted to 34 µM. For the same compound, the “Nav isoform inhibition (%) Nav1.1” value on Nav1.1 was found to be 56%. For the same compound, on Nav1.2, the “Nav isoform inhibition (%) Nav1.2 EP” value worked out at 24.4% and the “Nav isoform inhibition (%) Nav1.2 EP UD” value is 24.1%. Moreover, the “Nav isoform inhibition (%) Nav1.3” value at Nav1.3 came out at 54%. Also, on Nav1.4, the “Nav isoform inhibition (%) Nav1.4” value turned out to be 45%. Besides, the “Nav isoform inhibition (%) Nav1.6” value at Nav1.6 came to 73%. Further, the “Nav isoform inhibition (%) Nav1.7” value on Nav1.7 stood at 96%. The “Nav isoform inhibition (%) Nav1.8” value at Nav1.8 is listed as 87%. For the same compound, the “Nav isoform inhibition (%) Nav1.5” value on Nav1.5 [2] is on record as 99%.
Regarding `COc1cccc(C(=O)NCc2noc(-c3c4ccccc4nn3CCn3ccnc3)n2)c1OC` [Example 7, N-((5-(2-(2-(1H-imidazol-1-yl)ethyl)-2H-indazol-3-yl)-1,2,4-oxadiazol-3-yl)methyl)-2,3-dimethoxybenzamide], in series [1], the IC50 was found to be 4 µM.
Compound `O=C(NCc1noc(-c2c3ccccc3nn2CCn2ccnc2)n1)c1ccc(Cl)cc1` [Example 9, N-((5-(2-(2-(1H-imidazol-1-yl)ethyl)-2H-indazol-3-yl)-1,2,4-oxadiazol-3-yl)methyl)-4-chlorobenzamide] displayed an IC50 in series [1] of 22 µM.
Regarding `O=C(NCc1noc(-c2c3ccccc3nn2CCn2ccnc2)n1)c1cccc(F)c1F` [Example 10, N-((5-(2-(2-(1H-imidazol-1-yl)ethyl)-2H-indazol-3-yl)-1,2,4-oxadiazol-3-yl)methyl)-2,3-difluorobenzamide], the “Nav isoform inhibition (%) Nav1.1” value on Nav1.1 is reported as 54%. Besides, the “Nav isoform inhibition (%) Nav1.3” value on Nav1.3 is listed as 51%. On Nav1.4, the “Nav isoform inhibition (%) Nav1.4” value is 77%. Besides, the “Nav isoform inhibition (%) Nav1.6” value on Nav1.6 is 76%. Also, the “Nav isoform inhibition (%) Nav1.7” value at Nav1.7 worked out at 81%. Besides, the “Nav isoform inhibition (%) Nav1.8” value at Nav1.8 is 84%. Further, the “Nav isoform inhibition (%) Nav1.5” value on Nav1.5 [2] is listed as 84%.
`O=C(NCc1noc(-c2c3ccccc3nn2CCn2ccnc2)n1)c1ccc2ccccc2c1` [Example 11, N-((5-(2-(2-(1H-imidazol-1-yl)ethyl)-2H-indazol-3-yl)-1,2,4-oxadiazol-3-yl)methyl)-2-naphthamide]: at Nav1.1, the “Nav isoform inhibition (%) Nav1.1” value came to 83%. Moreover, the “Nav isoform inhibition (%) Nav1.3” value at Nav1.3 was found to be 63%. The “Nav isoform inhibition (%) Nav1.4” value on Nav1.4 was determined as 97%. Further, the “Nav isoform inhibition (%) Nav1.6” value on Nav1.6 worked out at 86%. In addition, the “Nav isoform inhibition (%) Nav1.7” value at Nav1.7 is listed as 33%. Besides, on Nav1.8, the “Nav isoform inhibition (%) Nav1.8” value is 91%. The “Nav isoform inhibition (%) Nav1.5” value on Nav1.5 [2] was found to be 98%.
In series [1], `O=C(NCc1noc(-c2c3ccccc3nn2CCn2ccnc2)n1)c1cccc(OC(F)(F)F)c1` [Example 14, N-((5-(2-(2-(1H-imidazol-1-yl)ethyl)-2H-indazol-3-yl)-1,2,4-oxadiazol-3-yl)methyl)-3-(trifluoromethoxy)benzamide] had a 50% inhibitory concentration (IC50) of 32 µM. Also, on Nav1.1, the “Nav isoform inhibition (%) Nav1.1” value is reported as 96%. At Nav1.2, the “Nav isoform inhibition (%) Nav1.2 EP” value was 98.5% and the “Nav isoform inhibition (%) Nav1.2 EP UD” value is “not detected”. At Nav1.3, the “Nav isoform inhibition (%) Nav1.3” value is given as 41%. Further, the “Nav isoform inhibition (%) Nav1.4” value on Nav1.4 is on record as 98%. Also, the “Nav isoform inhibition (%) Nav1.6” value at Nav1.6 is recorded as 79%. Besides, on Nav1.7, the “Nav isoform inhibition (%) Nav1.7” value amounted to 46%. Also, at Nav1.8, the “Nav isoform inhibition (%) Nav1.8” value worked out at 94%. Further, the “Nav isoform inhibition (%) Nav1.5” value at Nav1.5 [2] is 95%.
As to `O=C(NCc1noc(-c2nn(CCn3ccnc3)c3ccccc23)n1)c1ccccc1` [Example 15, N-((5-(1-(2-(1H-imidazol-1-yl)ethyl)-1H-indazol-3-yl)-1,2,4-oxadiazol-3-yl)methyl)benzamide], the “Inhibition of lymph node proliferative responses” value in series [3] is recorded as “failed to inhibit”. This compound had a Maximum tolerated dose in [4] above 50 mg/kg/daily. Also, the “Loss of motor-function as a consequence of relapse, rotarod” value in series [5] (10 mg/kg daily i.p. from day 33, day 48, vs vehicle) is “significantly (P<0.001) reduced”. Further, in series [5] (setting [7]), the “Incidence, onset or maximum severity of relapsing EAE” value is “did not significantly (P>0.05) inhibit”; the “Nerve loss in spinal cord, neurofilament heavy chain ELISA” value is given as “reduce nerve loss”; the “Recovery of motor-function during remission (clinical score)” value is listed as “significantly (P<0.01) greater degree of recovery”.
Consider `COc1ccc(C(=O)NCc2noc(-c3nn(CCn4ccnc4)c4ccccc34)n2)c(OC)c1OC` [Example 16, N-((5-(1-(2-(1H-imidazol-1-yl)ethyl)-1H-indazol-3-yl)-1,2,4-oxadiazol-3-yl)methyl)-2,3,4-trimethoxybenzamide], for which the “Nav isoform inhibition (%) Nav1.1” value at Nav1.1 worked out at 24%. Moreover, at Nav1.2, the “Nav isoform inhibition (%) Nav1.2 EP” value was 1.1% and the “Nav isoform inhibition (%) Nav1.2 EP UD” value amounted to 1.5%. The “Nav isoform inhibition (%) Nav1.3” value on Nav1.3 was found to be 39%. The “Nav isoform inhibition (%) Nav1.4” value at Nav1.4 is on record as 43%. On Nav1.6, the “Nav isoform inhibition (%) Nav1.6” value stood at 63%. Further, the “Nav isoform inhibition (%) Nav1.7” value on Nav1.7 is given as 96%. Also, the “Nav isoform inhibition (%) Nav1.8” value at Nav1.8 came to 48%. In addition, the “Nav isoform inhibition (%) Nav1.5” value at Nav1.5 [6] came out at 64%.
As to `COc1cccc(C(=O)NCc2noc(-c3nn(CCn4ccnc4)c4ccccc34)n2)c1OC` [Example 30, N-((5-(1-(2-(1H-imidazol-1-yl)ethyl)-1H-indazol-3-yl)-1,2,4-oxadiazol-3-yl)methyl)-2,3-dimethoxybenzamide], the “Nav isoform inhibition (%) Nav1.1” value at Nav1.1 was 26%. Moreover, on Nav1.2, the “Nav isoform inhibition (%) Nav1.2 EP” value is on record as 0.1% and the “Nav isoform inhibition (%) Nav1.2 EP UD” value is listed as 6.4%. Besides, the “Nav isoform inhibition (%) Nav1.3” value on Nav1.3 was 14%. Further, the “Nav isoform inhibition (%) Nav1.4” value at Nav1.4 is 33%. The “Nav isoform inhibition (%) Nav1.6” value at Nav1.6 came out at 77%. Also, the “Nav isoform inhibition (%) Nav1.7” value on Nav1.7 turned out to be 94%. Moreover, the “Nav isoform inhibition (%) Nav1.8” value at Nav1.8 was 62%. Moreover, the “Nav isoform inhibition (%) Nav1.5” value at Nav1.5 [2] came out at 71%.
